# In PubChem BioAssay AID624434 (The Scripps Research Institute Molecular Screening Center, 2012):
# Activity calls are given as the source filed them.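 The calls were made as follows: active = inhibition of 30% or more at 50 µM; inactive = inhibition under 30% at 50 µM.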
# Biological target: Serine/threonine-protein phosphatase 5 (Homo sapiens) (UniProt P53041)
# Assay: single-dose PP5c inhibition check – biochemical, fluorescence, round 5, powder samples, confirmation (AID 624434)
# Details: purified PP5c, OMFP dephosphorylation, at 50 µM, hits give high values
# Sequence of Serine/threonine-protein phosphatase 5 (Homo sapiens) (P53041 whole entry, looked up): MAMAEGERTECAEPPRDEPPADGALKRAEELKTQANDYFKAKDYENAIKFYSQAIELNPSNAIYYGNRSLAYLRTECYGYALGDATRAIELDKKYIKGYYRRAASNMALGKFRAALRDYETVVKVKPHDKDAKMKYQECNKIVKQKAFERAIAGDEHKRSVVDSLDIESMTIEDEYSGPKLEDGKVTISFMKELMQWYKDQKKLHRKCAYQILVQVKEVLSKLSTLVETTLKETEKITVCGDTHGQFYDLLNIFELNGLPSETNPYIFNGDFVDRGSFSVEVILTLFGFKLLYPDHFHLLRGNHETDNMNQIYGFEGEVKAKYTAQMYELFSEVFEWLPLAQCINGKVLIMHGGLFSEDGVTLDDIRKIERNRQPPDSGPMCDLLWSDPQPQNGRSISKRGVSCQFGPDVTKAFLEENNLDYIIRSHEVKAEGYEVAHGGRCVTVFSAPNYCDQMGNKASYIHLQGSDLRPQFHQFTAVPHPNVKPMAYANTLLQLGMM
row,SMILES,inhibition
1,COc1cccc(-c2n[nH]nc2C(=O)O)c1,77.6%
2,NC(=O)c1n[nH]nc1-c1ccccc1,5.21% (inactive)
3,O=C(O)c1[nH]ccc1-c1ccccc1,13.8% (inactive)
4,c1ccc(-c2n[nH]nc2-c2nn[nH]n2)cc1,1.15% (inactive)
5,CC(C)Oc1ccccc1-c1n[nH]nc1C(=O)O,84.9%
6,O=C(O)c1n[nH]nc1-c1ccccc1O,81.9%
7,O=C(O)c1n[nH]nc1-c1ccccn1,46.8%
8,Cc1ccccc1-c1n[nH]nc1C(=O)O,69.3%
9,O=Cc1n[nH]nc1-c1ccccc1,1.47% (inactive)
10,N#Cc1n[nH]nc1-c1ccccc1,2.79% (inactive)
11,O=C(O)c1n[nH]nc1-c1cccnc1,4.32% (inactive)
12,O=C(O)c1n[nH]nc1C(=O)O,12.4% (inactive)
13,CNC(=O)c1n[nH]nc1-c1ccccc1,-1.73% (inactive)
14,COc1ccccc1-c1n[nH]nc1C(=O)O,83.4%
15,O=C(O)c1n[nH]nc1-c1ccc(F)cc1,66.5%
16,CCc1ccccc1-c1n[nH]nc1C(=O)O,62.5%
17,CC(C)c1ccccc1-c1n[nH]nc1C(=O)O,47.4%
18,O=C(O)c1n[nH]nc1Br,10.6% (inactive)
19,O=C(O)c1cnn(-c2ccccc2)n1,3.79% (inactive)
20,O=C(O)c1n[nH]nc1-c1ccccc1F,81.1%
21,O=C(O)c1n[nH]nc1-c1ccccc1-c1ccccc1,52.6%
22,CN(C)C(=O)c1n[nH]nc1-c1ccccc1,0.413% (inactive)
23,CCOc1ccccc1-c1n[nH]nc1C(=O)O,85.6%
24,COc1ccc(-c2n[nH]nc2C(=O)O)cc1,70%
25,O=C(O)c1n[nH]nc1-c1cccc(F)c1,70.5%
